In patent US10668024B2, “Mesoporous silica nanoparticles for biomedical applications” (The Regents of the University of California, priority 2007, dated 2020):

Key:
Capan-1 cells = test: Cell death assay (WST-8), Example 2; type: cell-based, human
From the text: (§1) Human cancer cell lines, PANC-1, AsPC-1, Capan-1 (pancreatic), MKN45 (gastric), and SW480 (colon) were obtained from the American Type Culture Collection and were maintained in Dulbecco's modified Eagle's medium (DMEM) (GIBCO) or RPMI-1640 (Cellgro) supplemented with 10% fetal calf serum (Sigma), 2% L-glutamine, 1% penicillin, and 1% streptomycin stock solutions. The media were changed every 3 days, and the cells were passaged by trypsinization before confluence.

AsPc-1 cells = test: Cell death assay (WST-8), Example 2; type: cell-based, human
From the text: as §1

PANC-1 cells [1] = test: Cell death assay (WST-8), Example 2; type: cell-based, human
From the text: as §1

MKN-45 cells = test: Cell death assay (WST-8), Example 2; type: cell-based, human
From the text: as §1

SW480 cells = test: Cell death assay (WST-8), Example 2; type: cell-based, human
From the text: as §1

PANC-1 cells [2] = test: Fluorescence and confocal microscopy, Example 2; type: cell-based, human; settings: suspension of CPT in PBS, 100 nM, 3 hours incubation
From the text: as §1
The fluorescence of the nanoparticles at 470 nm excitation wavelength was used to confirm the cellular uptake of FMSN. […] The cells were then monitored by fluorescence microscope with an excitation wavelength at 470 nm. To examine the location of FMSN within the cells, Acridine Orange (AO) (Sigma) and lysoSensor green DND-189 (Invitrogen) were used to monitor lysosomes and endosomes. Cells were cultured overnight on a Lab-Tek chamber slide system (Nalge Nunc International). After the cells were incubated with FMSN for 3 hours, they were washed with PBS and examined with confocal microscope (λex=470 nm) (Carl Zeiss LSM 310 Laser Scanning Confocal microscope). […] This property allows the use of fluorescence to study the distribution of CPT inside the cells. PANC-1 cells were incubated with CPT-loaded FMSN or CPT suspended in PBS (100 nM) for 3 hours, washed with PBS 3 times, and then examined by fluorescence microscope under UV.

PANC-1 cells [3] = test: Apoptosis assay (propidium iodide/Hoechst 33342, DNA fragmentation, caspase-3 Western blot); type: cell-based, human; settings: 24 hours
Method: Cell death was also examined using the propidium iodide and Hoechst 33342 double-staining method. The cells were stained with propidium iodide/Hoechst 33342 (1:1) for 5 minutes and then examined using fluorescence microscope. DNA fragmentation assay was also performed. PANC-1 cells were treated for 24 hours with: (1) 100 nM CPT in PBS, (2) 100 nM CPT loaded in FMSN (suspended in PBS), or (3) 64 μg/ml nonloaded FMSN in PBS, then washed twice with ice-cold PBS and collected by trypsinization. The cell pellets were resuspended in 500 μl of Tris-EDTA buffer (20 mM Tris-HCl [pH 8.0], 20 mM EDTA) containing 0.1% SDS and proteinase K (0.5 mg/ml) at 50° C. for 2 hours and then treated with RNase A (0.02 mg/ml) for 30 minutes at 37° C. DNA was extracted using phenol/chloroform and ethanol precipitation and was dissolved in distilled water, separated on a 2% agarose gel, and stained with ethidium bromide.
Proteins were separated by gel electrophoresis on a polyacrylamide gel containing sodium dodecyl sulfate (SDS), and then transferred to nitrocellulose membranes. The membranes were blocked with tris buffer saline (TBS) containing 5% (W/V) skim milk. […] Bands were detected with an ECL system (Amersham Pharmacia Biotech K.K., UK).

PANC-1 cells [4] = test: Confocal microscopy of FMSN uptake, Example 3; type: cell-based, human; settings: 0.1% sodium azide, sucrose 0.45 M, bafilomycin A 0.05 μM, nocodazole 2 μg/ml, brefeldin A 5 μg/ml
Method: The fluorescence of FITC was used to monitor cellular uptake of FMSN. Cells were incubated with FMSN for 3 h at 37° C. under a 5% CO2 95% air atmosphere in an 8-chamber Lab-Tek chamber slide system with covers (Nalge Nunc International), washed with phosphate buffered saline (PBS) and examined with confocal microscopy (λex=470 nm) (Carl Zeiss LSM 310 Laser Scanning Confocal microscopy). To examine the distribution of FMSN within the cells, the same cells were then incubated with 6 μM of Acridine Orange (AO) (Sigma), which specifically stains lysosomes/endosomes to red (Canonico, P. G. and Bird, J. W. C. (1969), J. Cell Biol. 43, 367-371), for 1 h in DMEM without phenol red, washed with PBS, and examined by confocal microscopy again (λex=488 nm). The emission light was passed through a 560-nm short-pass dichroic mirror. The green emission was passed through a 530-nm bandpass filter, and the red emission was passed through a 600-nm longpass filter. Both emissions were simultaneously collected using two photomultiplier tubes.
To determine whether the uptake of FMSN into cancer cells was energy-dependent, the cells were incubated with FMSN under different metabolic conditions. The uptake assay was performed in the presence of sodium azide, sucrose, bafilomycin A, nocodazole or brefeldin A. Cells were seeded on 8-chamber Lab-Tek chamber slides for 24 h, then preincubated at 4° C. with either 0.1% sodium azide, or sucrose (0.45 M), or bafilomycin A (0.05 μM), or nocodazole (2 μg/ml), or brefeldin A (5 μg/ml) for 10 min. The FMSN suspension in PBS was then added and the cells were incubated for additional 3 h at 37° C. The uptake was stopped by washing the cells three times with cold PBS, and then the cells were fixed with 4% paraformaldehyde in PBS for 1 h at room temperature and washed with PBS. The chambers of slides were removed, and each slide was mounted with fluorescence-free glycerol-based mounting medium (Fluoromount-G; Southern Biotechnology Associates, USA) by cover glasses. Cells were analyzed by confocal microscopy (Carl Zeiss LSM 310 Laser Scanning Confocal microscopy).

cancer cells = settings: relative to CPT; cited from earlier work
PANC-1 cells [5] = test: Cell morphology analysis by light microscopy; settings: PANC-1, paclitaxel dissolved in DMSO

CC[C@@]1(O)C(=O)OCc2c1cc1n(c2=O)Cc2cc3ccccc3nc2-1 [CPT, camptothecin]
cytotoxicity / growth inhibition (Capan-1 cells; Capan-1, CPT dissolved in DMSO, 24 h treatment + 48 h): growth inhibition of different human cancer cells was observed | cytotoxicity (Capan-1 cells; Capan-1, CPT suspended in PBS, even at high concentrations): did not show any cytotoxicity | cytotoxicity / growth inhibition (AsPc-1 cells; AsPc-1, CPT dissolved in DMSO, 24 h treatment + 48 h): growth inhibition of different human cancer cells was observed | cytotoxicity (AsPc-1 cells; AsPc-1, CPT suspended in PBS, even at high concentrations): did not show any cytotoxicity | cytotoxicity / growth inhibition (PANC-1 cells [1]; PANC-1, CPT dissolved in DMSO, 24 h treatment + 48 h): growth inhibition of different human cancer cells was observed | cytotoxicity (PANC-1 cells [1]; PANC-1, CPT suspended in PBS, even at high concentrations): did not show any cytotoxicity | cytotoxicity / growth inhibition (MKN-45 cells; MKN-45, CPT dissolved in DMSO, 24 h treatment + 48 h): growth inhibition of different human cancer cells was observed | cytotoxicity (MKN-45 cells; MKN-45, CPT suspended in PBS, even at high concentrations): did not show any cytotoxicity | cytotoxicity / growth inhibition (SW480 cells; SW480, CPT dissolved in DMSO, 24 h treatment + 48 h): growth inhibition of different human cancer cells was observed | cytotoxicity (SW480 cells; SW480, CPT suspended in PBS, even at high concentrations): did not show any cytotoxicity | CPT fluorescence in cells (PANC-1 cells [2]): remained nonfluorescent | mechanism of cell death (propidium iodide/Hoechst 33342 double staining) (PANC-1 cells [3]; PANC-1, CPT dissolved in DMSO, compared with CPT-loaded FMSN): similar

C[S+](C)[O-] [DMSO, dimethyl sulfoxide]
mechanism of cell death (propidium iodide/Hoechst 33342 double staining) (PANC-1 cells [3]; PANC-1, 10% DMSO): induced necrosis

CO/C1=C\C(C)=C\[C@@H](C)[C@@H](O)[C@@H](C)C/C(C)=C/C=C/[C@H](OC)[C@@H]([C@@H](C)[C@@H](O)[C@H](C)[C@@]2(O)C[C@@H](O)[C@H](C)[C@@H](C(C)C)O2)OC1=O [bafilomycin A]
effect of preincubation with inhibitor on uptake of FMSN (PANC-1 cells [4]): completely suppressed the uptake

C[C@H]1CCC/C=C/[C@@H]2C[C@H](O)C[C@H]2[C@H](O)/C=C/C(=O)O1 [brefeldin A]
effect of preincubation with inhibitor on uptake of FMSN (PANC-1 cells [4]): did not show any effect

CCc1c2c(nc3ccc(OC(=O)N4CCC(N5CCCCC5)CC4)cc13)-c1cc3c(c(=O)n1C2)COC(=O)[C@]3(O)CC [irinotecan]
cytotoxicity to cancer cells compared to CPT (cancer cells): 10%

COC(=O)Nc1nc2ccc(C(=O)c3cccs3)cc2[nH]1 [nocodazole]
effect of preincubation with inhibitor on uptake of FMSN (PANC-1 cells [4]): significantly disrupted the uptake

CC(=O)O[C@H]1C(=O)[C@@]2(C)[C@H]([C@H](OC(=O)c3ccccc3)[C@]3(O)C[C@H](OC(=O)[C@H](O)[C@@H](NC(=O)c4ccccc4)c4ccccc4)C(C)=C1C3(C)C)[C@]1(OC(C)=O)CO[C@@H]1C[C@@H]2O [paclitaxel]
morphologic change of the cells (PANC-1 cells [5]): Cells became round and smaller

OC[C@H]1O[C@@](CO)(O[C@H]2O[C@H](CO)[C@@H](O)[C@H](O)[C@H]2O)[C@@H](O)[C@@H]1O [sucrose]
effect of preincubation with inhibitor on uptake of FMSN (PANC-1 cells [4]): suppressed the uptake
